Patent US5661177A, “Zinc cysteate its preparation and uses in pharmacy and cosmetology” (Chimie et Biologie, priority 1988, dated 1997)
“Also recorded” adds a separate entry of the source. Like-named read-outs stand apart in the source and are kept apart here.

Tests used:
[1] = test system: skin of Guinea Pig; conditions: TABLE I, cited from earlier work
[2] = test system: skin of Guinea Pig; conditions: in vivo
Description: The experiment was made according to the technical sheet No. 44 (J. Pharmacol. Paris, 1978, 9, 1, 103-6) which conforms to the Magnusson and Kligmann technique.
This sensibilization test according to Magnusson and Kligmann is described in detail in annex 3.
This test is designed to create a delayed allergic reaction in the guinea pig.
Female albino Hartley-breed guinea pigs weighing between 300 and 500 grams.
For the intradermic tract, the product is placed in solution or suspension in bidistilled water, or a suitable solvent. Intradermic injections of 0.1 ml are given in the preliminarily sheared and shaved dorsal region of four albino guinea pigs in increased concentrations. […] The reading of possible reactions takes place after 24 hours. […] If this is not the case, the scale utilized will depend on the maximum non-irritating concentration (MNIC), whose determination may require a second series of tests with concentrations to be determined in accordance with the results of the first.
The same procedures are used for the external cutaneous tract, with the product being placed, in certain cases, in suspension or solution in vaseline. […] Readings are taken one hour following removal of the pads. […]
Readings of local reactions take place 24 and 48 hours following removal of the pad. […]

[3] = test system: Pityrosporum ovale 1363; experiment: Antifungic test, discs method (inhibition diameter); format: cell-based; conditions: 72 hours at 37° C.
Description: (§1) CB 619 was tested against Pityrosporum orbiculare 1219 and Pityrosporum ovale 1363, both from the Pasteur Institute, in the Dixon's culture medium, modified by Randjandiche according to the following composition:
(§2) 30 ml of culture medium were cast in each Petri dish of 90 mm of diameter.
(§3) The inoculum was a 2 ml suspension of Pityrosporum containing 10,000,000 germs, 72 hours old, per ml.
(§4) After drying at 37° C., tests were carried out according to discs method or to cylinders method.
(§5) According to the discs method, discs of 6 mm of Antibiotica-Testblattchen Schleider & Schull, reference 2668/2, are soaked in test solution, then set down onto the seeded medium.
(§6) According to both methods, the inhibition areas were measured after a time of incubation of 72 hours at 37° C.
(§7) According to the discs method, Intrinsic Inhibition Power of CB 619 is, the inhibition diameter being given in mm: […]

[4] = test system: Pityrosporum orbiculare 1219; experiment: as above; format: cell-based; conditions: 72 hours at 37° C.
Description: as §1, §2, §3, §4, §5, §6, §7

[5] = test system: Pityrosporum ovale 1363; experiment: Antifungic test, cylinders method (inhibition diameter); format: cell-based; conditions: 72 hours at 37° C.
Description: (§8) CB 619 was tested against Pityrosporum orbiculare 1219 and Pityrosporum ovale 1363, both from the Pasteur Institute, in the Dixon's culture medium, modified by Randjandiche according to the following composition: 30 ml of culture medium were cast in each Petri dish of 90 mm of diameter. The inoculum was a 2 ml suspension of Pityrosporum containing 10,000,000 germs, 72 hours old, per ml. After drying at 37° C., tests were carried out according to discs method or to cylinders method. According to cylinders method, cylinders of 4 mm of diameter were excavated in gelose with a stainless steel tool, and 75 microliters of the solution of the tested product were introduced into each cylinder. According to both methods, the inhibition areas were measured after a time of incubation of 72 hours at 37° C. According to cylinders method, Intrinsic Inhibition Power of CB 619 is, the inhibition diameter being given in mm: […]

[6] = test system: Pityrosporum orbiculare 1219; experiment: as above; format: cell-based; conditions: 72 hours at 37° C.
Description: as §8

[7] = test system: lipidic synthesis of the sebaceous gland; experiment: In vitro antiseborrheic properties (14C-acetate incorporation, prepucial gland of the rat); format: cell-based
Description: In vitro antiseborrheic properties of CB 619
According to the experiment, the lipidic metabolic activity of the prepucial gland of the rat was evaluated. The lipidic synthesis of the sebaceous gland was evaluated by adding, as marked precursor, sodium ^14 C-acetate.
CB 619 was tested in comparison with carboxymethylcysteine (CMC) as a reference.

[8] = test system: human fibroblast cells
[9] = test system: skin; conditions: rabbit, in vivo
Description: Skin irritation index of CB 619 in the Rabbit
The experiment was made according to the French "Arrete Ministeriel" of the 21th of February 1982 which specifies the official method for the determination Of the skin primary irritation index (SPI).
The official method for the determination of the index of primary cutaneous irritation is described in detail in Annex 1.
The present method is utilized so as to determine the index of primary cutaneous irritation for a cosmetic or bodily hygiene product.
This method is based on the observation of cutaneous reactions provoked through the sole application of the principle.
4.1. Male albino rabbits of defined breed, weighing around 2.5 kg. So as to be perfectly acclimated, the animals must be kept in individual cages for one week prior to the experiment, and; must receive food of invariably balanced composition.
5.1.1. The day before application of the product, shear the back and flanks of the rabbits (4.1) with shears (4.3) so as to clear a surface of about 14 cm×14 cm; proceed with care in order to avoid all irritation. Verify skin condition so as to retain but six animals presenting healthy and clean-shaved skin.
5.1.2. […]
Primary cutaneous irritation must be evaluated around thirty minutes subsequent to removal of the dressing; a second evaluation is to take place 48 hours later, i.e. 72 hours after application of the product. […]

[10] = test system: Mouse; experiment: Acute toxicity in the Mouse (LD 50); format: in vivo; conditions: for LD 50: male and female mice, 14 days, Miller and Tainter method
Description: Acute toxicity of CB 619 in the Mouse
The lethal dosis 50% (LD 50) of CB 619 were evaluated when dissolved in bidistilled water and administered by 0.2 to 0.3 ml/kg volumes, monitoring the effect during 14 days.

[11] = pH of aqueous solution; format: physicochemical; conditions: 6% solution in water
[12] = test system: wound made by loss of substance; experiment: Cicatrizing activity in the rat (area of wound); format: in vivo
Description: Cicatrizing activity of CB 619 in the rat
The experiment was to calculate the area of the wound made by loss of substance.

[13] = test system: eye; conditions: rabbit, in vivo
Description: The experiment was made according to the recommendations of the French "Arrete Ministeriel" of the 21 February 1984 which specifies the official method to determinate the eye irritation (E.I.).
The present method is utilized so as to evaluate the kind and degree of irritation brought about in the eyes by the use of a cosmetic or bodily hygiene product.
The method is based on observation of ocular reaction provoked by the sole instillation of the product.
Directly apply the product in the conjunctival pouch of one of the eyes in the following doses:
Observe the eye of the rabbits one hour, and then 1, 2, 3, 4 and 7 days following the instillation, utilizing the non-instilled eye as a control in order to evaluate possible irritation in the treated eye.
Add up the scores gathered for each of the six rabbits as of each time of observation. One thereby obtains the index of individual ocular irritation: I.O.I.
At each time of observation calculate the average individual ocular irriatation for the six rabbits. One thereby obtains the index of mean ocular irritation: O.I.
Note among the six ocular irritation scores the one with the highest value. One thereby obtains the index of maximum ocular irritation: M.O.I. The time it takes for the latter to appear will be specified in the minutes or report of the experiment.
In an initial approximation, the product is classified in one of the six categories in accordance with the maximum ocular irritation scores.
In a second evaluation, the persistence of lesions intervenes as a corrective of the preceding classification; the ocular irritation and individual ocular irritation scores at different times are taken into account:

[14] = test system: cicatrization of wounds; conditions: normal animal, without zinc deficiency; Favier et al. 1980; cited from earlier work

CCOC(=O)c1ccc(N)cc1 [Benzocaine]
Class. (degree of allergenicity) ([1]; reading 24): II (9-28) | Number of animals with Note 0 ([1]; reading 24): 17 | Number of animals with Note 1 ([1]; reading 24): 3 | Number of animals with Note 2 ([1]; reading 24): 0 | Number of animals with Note 3 ([1]; reading 24): 0 | Percentage of animals having presented a reaction ([1]; reading 24): 15% | Class. (degree of allergenicity) ([1]; reading 48): II (9-28) | Number of animals with Note 0 ([1]; reading 48): 17 | Number of animals with Note 1 ([1]; reading 48): 3 | Number of animals with Note 2 ([1]; reading 48): 0 | Number of animals with Note 3 ([1]; reading 48): 0 | Percentage of animals having presented a reaction ([1]; reading 48): 15%

N[C@@H](CS(=O)(=O)O)C(=O)[O-].N[C@@H](CS(=O)(=O)O)C(=O)[O-].O.O.[Zn+2] [CB 619, dihydrate of the zinc salt of L-cysteic acid]
Allergenicity (sensibilization) [2]: no allergenic properties | Solubility in water: ~6 weight-percent by volume | Intrinsic Inhibition Power, inhibition diameter ([3]; 1 mg): 6 mm | Intrinsic Inhibition Power, inhibition diameter ([3]; 2 mg): 7 mm | Intrinsic Inhibition Power, inhibition diameter ([3]; 3 mg): 9 mm | Intrinsic Inhibition Power, inhibition diameter ([3]; 4 mg): 11 mm | Intrinsic Inhibition Power, inhibition diameter ([3]; 5 mg): 13 mm | Intrinsic Inhibition Power, inhibition diameter ([4]; 1 mg): 6 mm | Intrinsic Inhibition Power, inhibition diameter ([4]; 2 mg): 7 mm | Intrinsic Inhibition Power, inhibition diameter ([4]; 3 mg): 9 mm | Intrinsic Inhibition Power, inhibition diameter ([4]; 4 mg): 11 mm | Intrinsic Inhibition Power, inhibition diameter ([4]; 5 mg): 13 mm | Intrinsic Inhibition Power, inhibition diameter ([5]; concentration of 2%): 10 mm | Intrinsic Inhibition Power, inhibition diameter ([5]; saturated solution): 11 mm | Intrinsic Inhibition Power, inhibition diameter ([6]; concentration of 2%): 10 mm | Intrinsic Inhibition Power, inhibition diameter ([6]; saturated solution): 11 mm | Inhibition of the lipidic synthesis ([7]; 10^-3 M): 41.8% | Antiseborrheic activity compared with carboxymethylcysteine ([7]; 10^-3 M, CB 619 versus CMC): the more active | Inhibition of the lipidic synthesis ([7]; 10^-4 M): 33.7% | Cell multiplication ([8]; 1 and 5 microgram/ml): increases the 5 cell multiplication in accordance with the concentration | Significance of increase in cell multiplication (days) ([8]; 1 microgram/ml): significant on the sixth day | Significance of increase in cell multiplication (days) ([8]; 5 microgram/ml): on the fourth, sixth and eighth days | Skin irritation classification [9]: non-irritant | Skin primary irritation index (SPI) [9]: 0.1666 | LD 50 ([10]; intraperitoneally): 100 ± 13 mg/kg | Signs at the toxic dosis ([10]; mouse, toxic dosis): animals become isolated in their cage; also recorded: Their hair stands up and they move with difficulty; also recorded: No diarrhea was observed | LD 50 ([10]; orally): 1650 ± 60 mg/kg | pH of a 6% solution [11]: about 6.30 | Cicatrization ([12]; 3% in a 2% carbopol gel): enhances cicatrization | Cicatrization ([12]; 10% in a 2% carbopol gel): no more active | Eye irritation (E.I.) [13]: under 2 | Eye irritation classification [13]: very weakly irritant | Maximum eye irritation [13]: 5.83

Nc1ccc(N)cc1 [Diamine paraphenylene]
Class. (degree of allergenicity) ([1]; reading 24): V (81-100) | Number of animals with Note 0 ([1]; reading 24): 3 | Number of animals with Note 1 ([1]; reading 24): 13 | Number of animals with Note 2 ([1]; reading 24): 4 | Number of animals with Note 3 ([1]; reading 24): 0 | Percentage of animals having presented a reaction ([1]; reading 24): 85% | Class. (degree of allergenicity) ([1]; reading 48): IV (65-80) | Number of animals with Note 0 ([1]; reading 48): 4 | Number of animals with Note 1 ([1]; reading 48): 12 | Number of animals with Note 2 ([1]; reading 48): 4 | Number of animals with Note 3 ([1]; reading 48): 0 | Percentage of animals having presented a reaction ([1]; reading 48): 80%

CCN(CC)CCNC(=O)c1ccc(N)cc1 [Procainamide]
Number of animals with Note 0 ([1]; reading 24): 6 | Number of animals with Note 1 ([1]; reading 24): 5 | Number of animals with Note 2 ([1]; reading 24): 9 | Number of animals with Note 3 ([1]; reading 24): 0 | Percentage of animals having presented a reaction ([1]; reading 24): 70% | Number of animals with Note 0 ([1]; reading 48): 6 | Number of animals with Note 1 ([1]; reading 48): 5 | Number of animals with Note 2 ([1]; reading 48): 9 | Number of animals with Note 3 ([1]; reading 48): 0 | Percentage of animals having presented a reaction ([1]; reading 48): 70%

OCC(O)CS (stereo not shown) [Thioglycerol]
Class. (degree of allergenicity) ([1]; reading 24): III (29-64) | Number of animals with Note 0 ([1]; reading 24): 7 | Number of animals with Note 1 ([1]; reading 24): 9 | Number of animals with Note 2 ([1]; reading 24): 3 | Number of animals with Note 3 ([1]; reading 24): 0 | Percentage of animals having presented a reaction ([1]; reading 24): 63% | Class. (degree of allergenicity) ([1]; reading 48): III (29-64) | Number of animals with Note 0 ([1]; reading 48): 11 | Number of animals with Note 1 ([1]; reading 48): 8 | Number of animals with Note 2 ([1]; reading 48): 0 | Number of animals with Note 3 ([1]; reading 48): 0 | Percentage of animals having presented a reaction ([1]; reading 48): 45%

[Zn] [zinc]
Cicatrization [14]: does not accelerate the cicatrization

carboxymethylcysteine [CMC]
Inhibition of the lipidic synthesis ([7]; 10^-3 M): 24.5% | Inhibition of the lipidic synthesis ([7]; 10^-4 M): 5.9%
